In PubChem BioAssay (NCI):
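These data come from cells grown in 96-well plates and exposed to compound for 48 hours at five concentrations. GI50 = concentration required for 50% inhibition of growth. TGI: concentration producing complete growth inhibition.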

Legend:
Assay in all cases: NCI tumour cell line growth inhibition, 48 h
786-0 renal = test system: 786-0 renal
A549 NSCLC = test system: A549 NSCLC
ACHN renal = test system: ACHN renal
BT-549 breast = test system: BT-549 breast
CAKI-1 renal = test system: CAKI-1 renal
COLO 205 colon = test system: COLO 205 colon
DU-145 prostate = test system: DU-145 prostate
EKVX NSCLC = test system: EKVX NSCLC
HCC-2998 colon = test system: HCC-2998 colon
HCT-116 colon = test system: HCT-116 colon
HCT-15 colon = test system: HCT-15 colon
HL-60(TB) leukemia = test system: HL-60(TB) leukemia
HOP-92 NSCLC = test system: HOP-92 NSCLC
HT29 colon = test system: HT29 colon
IGROV1 ovarian = test system: IGROV1 ovarian
K-562 leukemia = test system: K-562 leukemia
KM12 colon = test system: KM12 colon
LOX IMVI melanoma = test system: LOX IMVI melanoma
M14 melanoma = test system: M14 melanoma
MALME-3M melanoma = test system: MALME-3M melanoma
MCF7 breast = test system: MCF7 breast
MDA-MB-231 breast = test system: MDA-MB-231 breast
MDA-MB-435 = test system: MDA-MB-435
NCI-H23 lung = test system: NCI-H23 lung
NCI-H522 lung = test system: NCI-H522 lung
OVCAR-3 ovarian = test system: OVCAR-3 ovarian
OVCAR-4 ovarian = test system: OVCAR-4 ovarian
OVCAR-5 ovarian = test system: OVCAR-5 ovarian
OVCAR-8 ovarian = test system: OVCAR-8 ovarian
PC-3 prostate = test system: PC-3 prostate
RPMI-8226 leukemia = test system: RPMI-8226 leukemia
RXF 393 renal = test system: RXF 393 renal
SF-268 CNS = test system: SF-268 CNS
SF-539 CNS = test system: SF-539 CNS
SK-MEL-2 melanoma = test system: SK-MEL-2 melanoma
SK-MEL-28 melanoma = test system: SK-MEL-28 melanoma
SK-OV-3 ovarian = test system: SK-OV-3 ovarian
SN12C renal = test system: SN12C renal
SNB-19 CNS = test system: SNB-19 CNS
SNB-75 CNS = test system: SNB-75 CNS
SR leukemia = test system: SR leukemia
SW-620 colon = test system: SW-620 colon
T-47D breast = test system: T-47D breast
U251 CNS = test system: U251 CNS
UACC-257 melanoma = test system: UACC-257 melanoma
UACC-62 melanoma = test system: UACC-62 melanoma
UO-31 renal = test system: UO-31 renal

O=C1c2ccccc2-c2c1c1ccc([N+](=O)[O-])cc1c(=O)n2CCCBr
GI50 (786-0 renal): > 100 µM
TGI (786-0 renal): > 100 µM
GI50 (A549 NSCLC): > 100 µM
TGI (A549 NSCLC): > 100 µM
GI50 (ACHN renal): > 100 µM
TGI (ACHN renal): > 100 µM
GI50 (BT-549 breast): > 100 µM
TGI (BT-549 breast): > 100 µM
GI50 (CAKI-1 renal): 3.23 µM
TGI (CAKI-1 renal): > 100 µM
GI50 (COLO 205 colon): > 100 µM
TGI (COLO 205 colon): > 100 µM
GI50 (DU-145 prostate): > 100 µM
TGI (DU-145 prostate): > 100 µM
GI50 (EKVX NSCLC): > 100 µM
TGI (EKVX NSCLC): > 100 µM
GI50 (HCC-2998 colon): > 100 µM
TGI (HCC-2998 colon): > 100 µM
GI50 (HCT-116 colon): 3.43 µM
TGI (HCT-116 colon): > 100 µM
GI50 (HCT-15 colon): > 100 µM
TGI (HCT-15 colon): > 100 µM
GI50 (HL-60(TB) leukemia): > 100 µM
TGI (HL-60(TB) leukemia): > 100 µM
GI50 (HOP-92 NSCLC): > 100 µM
TGI (HOP-92 NSCLC): > 100 µM
GI50 (HT29 colon): > 100 µM
TGI (HT29 colon): > 100 µM
GI50 (IGROV1 ovarian): > 100 µM
TGI (IGROV1 ovarian): > 100 µM
GI50 (K-562 leukemia): > 100 µM
TGI (K-562 leukemia): > 100 µM
GI50 (KM12 colon): > 100 µM
TGI (KM12 colon): > 100 µM
GI50 (LOX IMVI melanoma): 4.18 µM
TGI (LOX IMVI melanoma): > 100 µM
GI50 (M14 melanoma): 3.26 µM
TGI (M14 melanoma): > 100 µM
GI50 (MALME-3M melanoma): > 100 µM
TGI (MALME-3M melanoma): > 100 µM
GI50 (MCF7 breast): 0.153 µM
TGI (MCF7 breast): > 100 µM
GI50 (MDA-MB-231 breast): > 100 µM
TGI (MDA-MB-231 breast): > 100 µM
GI50 (MDA-MB-435): > 100 µM
TGI (MDA-MB-435): > 100 µM
GI50 (NCI-H23 lung): 1.1 µM
TGI (NCI-H23 lung): 5.76 µM
GI50 (NCI-H522 lung): 96.8 µM
TGI (NCI-H522 lung): > 100 µM
GI50 (OVCAR-3 ovarian): > 100 µM
TGI (OVCAR-3 ovarian): > 100 µM
GI50 (OVCAR-4 ovarian): > 100 µM
TGI (OVCAR-4 ovarian): > 100 µM
GI50 (OVCAR-5 ovarian): > 100 µM
TGI (OVCAR-5 ovarian): > 100 µM
GI50 (OVCAR-8 ovarian): > 100 µM
TGI (OVCAR-8 ovarian): > 100 µM
GI50 (PC-3 prostate): > 100 µM
TGI (PC-3 prostate): > 100 µM
GI50 (RPMI-8226 leukemia): 36 µM
TGI (RPMI-8226 leukemia): > 100 µM
GI50 (RXF 393 renal): > 100 µM
TGI (RXF 393 renal): > 100 µM
GI50 (SF-268 CNS): > 100 µM
TGI (SF-268 CNS): > 100 µM
GI50 (SF-539 CNS): > 100 µM
TGI (SF-539 CNS): > 100 µM
GI50 (SK-MEL-2 melanoma): > 100 µM
TGI (SK-MEL-2 melanoma): > 100 µM
GI50 (SK-MEL-28 melanoma): > 100 µM
TGI (SK-MEL-28 melanoma): > 100 µM
GI50 (SK-OV-3 ovarian): > 100 µM
TGI (SK-OV-3 ovarian): > 100 µM
GI50 (SN12C renal): > 100 µM
TGI (SN12C renal): > 100 µM
GI50 (SNB-19 CNS): > 100 µM
TGI (SNB-19 CNS): > 100 µM
GI50 (SNB-75 CNS): > 100 µM
TGI (SNB-75 CNS): > 100 µM
GI50 (SR leukemia): 0.2 µM
TGI (SR leukemia): > 100 µM
GI50 (SW-620 colon): 5.26 µM
TGI (SW-620 colon): > 100 µM
GI50 (T-47D breast): > 100 µM
TGI (T-47D breast): > 100 µM
GI50 (U251 CNS): > 100 µM
TGI (U251 CNS): > 100 µM
GI50 (UACC-257 melanoma): > 100 µM
TGI (UACC-257 melanoma): > 100 µM
GI50 (UACC-62 melanoma): > 100 µM
TGI (UACC-62 melanoma): > 100 µM
GI50 (UO-31 renal): > 100 µM
TGI (UO-31 renal): > 100 µM
